Among the data in patent US6706725B1, “Vitamin D analogues” (Galderma Research & Development, S.N.C., priority 1999, dated 2004) are AC50 values, retold here.

The target of this test is T1, human VDR receptor (Homo sapiens, UniProt P11473).
T1 construct: expressed in transfected cells; host or cells: HeLa
T1 sequence (P11473 1-427): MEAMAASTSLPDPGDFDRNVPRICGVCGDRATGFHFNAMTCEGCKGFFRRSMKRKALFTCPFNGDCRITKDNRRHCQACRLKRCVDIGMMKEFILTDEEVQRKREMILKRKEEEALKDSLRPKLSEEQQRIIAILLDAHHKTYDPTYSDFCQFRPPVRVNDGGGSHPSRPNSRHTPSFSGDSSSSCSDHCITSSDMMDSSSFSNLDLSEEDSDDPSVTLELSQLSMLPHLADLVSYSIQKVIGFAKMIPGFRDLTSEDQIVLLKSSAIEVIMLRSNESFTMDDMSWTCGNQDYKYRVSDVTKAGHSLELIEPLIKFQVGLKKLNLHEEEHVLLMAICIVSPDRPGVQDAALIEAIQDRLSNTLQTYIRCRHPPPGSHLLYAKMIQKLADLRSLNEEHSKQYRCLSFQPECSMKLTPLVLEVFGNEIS
Description: VDR agonist activity by co-transfection in HeLa cells (human VDR expression vector + p240Hase-CAT reporter, CAT ELISA). In kind it is cell-based. Conditions: HeLa cell line co-transfected with human VDR and rat 24-hydroxylase promoter-CAT reporter; treatment for 18 hours; read-out: AC 50 (dose required to achieve 50% of the maximum activity of the product). Here is the method: By way of example, the VDR agonist activity can be tested on the HeLa cell line by co-transfection with an expression vector for the human VDR receptor and the reporter plasmid p240Hase-CAT which contains the region −1399 to +76 of rat 24-hydroxylase promoter, cloned upstream of the frame encoding the chloramphenicol-acetyl-transferase (CAT) gene. 18 hours after co-transfection, the test product is added to the medium. After treatment for 18 hours, assay of the CAT activity in the cell lysates is carried out by an ELISA test. The results are expressed as percentages of the effect normally observed with 10^−7M calcitriol.
The agonist activity can also be characterized in the co-transfection system, by determining the dose required to reach 50% of the maximum activity of the product (AC50).
The VDR agonist activity was tested on the HeLa cell line, by co-transfection of an expression vector of the human VDR receptor and of the reporter plasmid p240Hase-CAT which contains the region −1399 to +76 of the rat 24-hydroxylase promoter, cloned upstream of the coding frame of the chloramphenicol-acetyl-transferase (CAT) gene. 18 hours after co-transfection, the test product is added to the medium. After treatment for 18 hours, the CAT activity of the cell lysates is assayed by an ELISA test. The results are expressed as a percentage of the effect normally observed with 10^−7 M of calcitriol.
The agonist activity was characterized in this co-transfection system by determining the dose required to achieve 50% of the maximum activity of the product (AC50).

Regarding `CCC(O)(CC)CC/C=C(\C)c1ccc(COc2ccc(CO)c(CO)c2)s1` [Example 1, (E)-7-[5-(3,4-bis-Hydroxymethyl-phenoxymethyl)-2-thienyl]-3-ethyloct-6-en-3-ol], the AC50 is 0.192 µM. The figure for `CCC(O)(CC)CC/C=C(\C)c1cc(COc2ccc(CO)c(CO)c2)cs1` [Example 2, (E)-7-[4-(3,4-bis-Hydroxymethyl-phenoxymethyl)-2-thienyl]-3-ethyloct-6-en-3-ol] is 0.267 µM; for `CC/C(=C\CCC(O)(CC)CC)c1cccc(COc2ccc(CO)c(CO)c2)n1` [Example 4, (E)-7-[6-(3,4-bis-Hydroxymethyl-phenoxymethyl)-2-pyridyl]-3-ethylnon-6-en-3-ol] it is 0.294 µM; for `CC/C(=C\CCC(O)(CC)CC)c1ccc(COc2ccc(CO)c(CO)c2)s1` [Example 6, (E)-7-[5-(3,4-bis-Hydroxymethyl-phenoxymethyl)-2-thienyl]-3-ethylnon-6-en-3-ol] it is 0.061 µM. For `CC/C(=C\C=C\C(O)(CC)CC)c1ccc(COc2ccc(CO)c(CO)c2)s1` [Example 7, (4E,6E)-7-[5-(3,4-bis-Hydroxymethyl-phenoxymethyl)-2-thienyl]-3-ethylnona-4,6-dien-3-ol] the value was 0.017 µM; for `CC/C(=C\CCC(O)(CC)CC)c1ccc(CCc2ccc(CO)c(CO)c2)s1` [Example 8, (E)-7-{5-[2-(3,4-bis-Hydroxymethyl-phenyl)ethyl]-2-thienyl}-3-ethylnon-6-en-3-ol], 0.029 µM. For `CC/C(=C\CCC(O)(CC)CC)c1cc(CCc2ccc(CO)c(CO)c2)cs1` [Example 10, (E)-7-[4-[2-(3,4-bis-Hydroxymethyl-phenyl)ethyl]-2-thienyl)-3-ethylnon-6-en-3-ol] the value was 0.023 µM.

In the case of `CC/C(=C\CCC(O)(CC)CC)c1csc(COc2ccc(CO)c(CO)c2)c1` [Example 12, (E)-7-[5-(3,4-bis-Hydroxymethyl-phenoxymethyl)-3-thienyl]-3-ethylnon-6-en-3-ol], the AC50 came to 0.655 µM. Turning to `CC/C(=C\C=C\C(O)(C(F)(F)F)C(F)(F)F)c1ccc(COc2ccc(CO)c(CO)c2)s1` [Example 13, (3E,5E)-6-[5-(3,4-bis-Hydroxymethyl-phenoxymethyl)-2-thienyl]-1,1,1-trifluoro-2-trifluoromethylocta-3,5-dien-2-ol], the AC50 came to 0.078 µM.
